Source: patent EP0163240A2, “Dihydroimidazo[1,2-a]pyrimidine derivatives, methods of preparing said compounds and pharmaceutical compositions constaining said compounds” (priority 1984, dated 1985)
Counter-ions that a name gives are not always drawn. Like-named read-outs stand apart in the source and are kept apart here.

Columns and labels:
[1] = system: Trachea of guinea pig; assay: Anticholinergic activity (ACh-contracted tracheal strip chain preparation); settings: for IC50: Cavia porcellus, read-out: 50% inhibitory concentration (IC50) on ACh-induced contraction; for relaxant effect on ACh-contracted preparation: 10^-7-10^-5M
Procedure: (§1) Each of 30 mg/kg of test compounds A and Q was orally administered to five male spontaneously hypertensive rats and the blood pressure was measured by the tail cuff method. The blood pressure lowering value after 1 hour administration of test compound A was 48 mmHg and that value after 5 hours administration of test compound Q was 64 mmHg. Pharmacological experiment 6: Anticholinergic activity
Trachea of guinea pig, weighing 380-550 g, was isolated and prepared its strip chain preparation. The preparation was mounted in organ bath filled with Krebs-Henseleit solution gassed with 95% 02 and 5% CO2. Length of the preparation was measured by isometric transducer (MEC, ME-4012). The preparation was contracted by 10^-6 M of acetylcholine (ACh) and then, test compounds were added cumulatively into the bath to observe relaxant effect.
(§2) Pharmacological experiment 7: Toxicity

[2] = system: vertebral blood flow; assay: Effect on vertebral blood flow; format: in vivo, Adult mongrel dogs; settings: for ED100: dose required to obtain 100% of the increase of blood flow by 100 µg of papaverine hydrochloride, injected in the vertebral artery, anesthetized dogs; for T 1/2: half-life measured as the duration of effects on vertebral blood flow
Procedure: Pharmacological experiment 3: Effect on vertebral blood flow Adult mongrel dogs were anesthetized with sodium pentobarbital (25 mg/kg, i.v.). The right vertebral artery was perfused and the blood flow was measured. Test compound was injected in the vertebral artery. […] Half-life (T 1/2, minute) was measured as the duration of effects.

[3] = system: coronary blood flow; assay: Effect on coronary blood flow; format: in vivo, Adult mongrel dogs; settings: for ED50: dose required to increase the coronary blood flow by a half of the effects of nifedipine, injected into the coronary artery, anesthetized dogs; for T 1/2: half-life measured as the duration of effects on coronary blood flow
Procedure: Pharmacological experiment 2: Effect on coronary blood flow Adult mongrel dogs were anesthetized with sodium pentobarbital (30 mg/kg, i.v.). According to the method of Yago et al described in Folia Pharmacol. Japon, vol. 57, 380 (1961), the left coronary artery was perfused and its blood flow was measured. […] The half-life (T 1/2, minute) was measured as the duration of effects.

[4] = system: liver mitochondria; assay: Effect on lipid peroxidation (malondialdehyde formation in liver mitochondria, thiobarbituric acid method); format: biochemical, Male Sprague-Dawley rats; settings: 50% inhibitory concentration on the formation of malondialdehyde; ascorbic acid, ferrous sulfate; 25°C for 30 minutes
Procedure: Pharmacological experiment 4: Effect on lipid peroxidation
Male Sprague-Dawley rats weighing 300-350 g were used. According to the method of Shimada et al described in Biochim. Biophys. Acta, vol. 572, 531 (1979), the liver mitochondria were isolated and ascorbic acid, ferrous sulfate, potassium chloride and Tris-HC1 buffer were added. To the solution was added test compound dissolved in dimethyl sulfoxide, and the mixture was incubated at 25°C for 30 minutes. The amount of malondialdehyde was determined by the thiobarbituric acid method and the 50% inhibitory concentration (IC50, µmol) of test compound on the formation of malondialdehyde was measured.

[5] = system: ddY strain mice; format: in vivo
Source text: as §2
Test compounds A, B, C, E and S were orally administered to five ddY strain mice.

[6] = system: spontaneously hypertensive rats; assay: Effect on hypertension (tail cuff method); format: in vivo, male spontaneously hypertensive rats; settings: 30 mg/kg orally
Procedure: Pharmacological experiment 5: Effect on hypertension
as §1

[7] = preparation contracted by 10^-6 M of acetylcholine (ACh), cumulative addition
[8] = oral dose of 1000 mg/kg, five mice

| IC50 [4] [nM] | Structure (SMILES) | ED100 [2] [µg] | T 1/2 [2] [min] | ED50 [3] [µg] | T 1/2 [3] [min] | further results |
| --- | --- | --- | --- | --- | --- | --- |
| – | COC(=O)C1=C(C)Nc2ncc(CN3CCCC3)n2C1c1cccc([N+](=O)[O-])c1 (centres unmarked) [Compound P, Methyl 7-methyl-5-(3-nitrophenyl)-3-(1-pyrrolidinylmethyl)-5,8-dihydroimidazo[1,2-a] pyrimidine-6-carboxylate dihydrochloride] | 6 | 0.6 | – | – | IC50 [1, 7]: 2300 nM |
| – | CCCN(CCC)Cc1cnc2n1C(c1cccc([N+](=O)[O-])c1)C(C(=O)OC)=C(C)N2 (centres unmarked) [Compound H, Methyl 3-dipropylaminomethyl-7-methyl-5-(3-nitrophenyl)-5,8-dihydroimidazo[1,2-a]pyrimidine-6-carboxylate] | 2 | 1.0 | 7 | 1.0 | – |
| 10000 | CCOCc1cnc2n1C(c1cccc([N+](=O)[O-])c1)C(C(=O)OCC)=C(C)N2 (centres unmarked) [Compound G, Ethyl 3-ethoxymethyl-7-methyl-5-(3-nitrophenyl)-5,8-dihydroimidazo[1,2-a]pyrimidine-6-carboxylate] | – | – | 7 | 1.0 | – |
| – | CCOC(=O)C1=C(C)Nc2ncc(CNCc3ccccc3)n2C1c1cccc([N+](=O)[O-])c1.Cl.Cl (centres unmarked) [Compound N, Ethyl 3-benzylaminomethyl-7-methyl-5-(3-nitrophenyl)-5,8-dihydroimidazo[1,2-a]pyrimidine-6-carboxylate dihydrochloride] | 10 | 0.7 | – | – | – |
| 2000 | CCOC(=O)C1=C(C)Nc2ncc(N(CC)CC)n2C1c1cccc([N+](=O)[O-])c1 (centres unmarked) [Compound F, Ethyl 3-diethylamino-7-methyl-5-(3-nitrophenyl)-5,8-dihydroimidazo[1,2-a]pyrimidine-6-carboxylate] | – | – | 12 | 1.0 | – |
| – | CCCCNCc1cnc2n1C(c1cccc([N+](=O)[O-])c1)C(C(=O)OCC)=C(C)N2.Cl.Cl (centres unmarked) [Compound O, Ethyl 3-butylaminomethyl-7-methyl-5-(3-nitrophenyl)-5,8-dihydroimidazo[1,2-a]pyrimidine-6-carboxylate dihydrochloride] | 15 | 0.7 | – | – | – |
| – | COC(=O)C1=C(C)Nc2ncc(CNc3ccccc3C(F)(F)F)n2C1c1cccc([N+](=O)[O-])c1 (centres unmarked) [Compound S, Methyl 7-methyl-5-(3-nitrophenyl)-3-(2-trifluoromethylphenyl)aminomethyl-5,8-dihydroimidazo[1,2-a]pyrimidine-6-carboxylate] | – | – | – | – | survival [5, 8]: All mice were survived |
| – | CCN(CC)Cc1cnc2n1C(c1cccc([N+](=O)[O-])c1)C(C(=O)OC(CN1CCCCC1)c1ccccc1)=C(C)N2 (single isomer, unassigned) [Compound Q, 2-Piperidino-1-phenylethyl 3-diethylaminomethyl-7-methyl-5-(3-nitrophenyl)-5,8-dihydroimidazo [1,2-a]pyrimidine-6-carboxylate (β-form)] | 18 | 4.0 | – | – | blood pressure lowering value ([6]; after 5 hours): 64 mmHg |
| – | CCOC(=O)C1=C(C)Nc2ncc([N+](=O)[O-])n2C1c1ccccc1C(F)(F)F (centres unmarked) [Compound M, Ethyl 7-methyl-3-nitro-5-(2-trifluoromethylphenyl)-5,8-dihydroimidazo[1,2-a]pyrimidine-6-carboxylate] | – | – | 5 | 1.0 | – |
| – | CCOC(=O)C1=C(C)Nc2ncc(CN(CC)CC)n2C1c1ccccc1[N+](=O)[O-].Cl.Cl.O (centres unmarked) [Compound I, Ethyl 3-diethylaminomethyl-7-methyl-5-(2-nitrophenyl)-5,8-dihydroimidazo[1,2-a]pyrimidine-6-carboxylate dihydrochloride monohydrate] | – | – | 10 | 2.0 | – |
| – | COC(=O)C1=C(C)Nc2ncc(CN(C(C)C)C(C)C)n2C1c1cccc([N+](=O)[O-])c1 (centres unmarked) [Compound K, Methyl 3-diisopropylaminomethyl-7-methyl-5-(3-nitrophenyl)-5,8-dihydroimidazo[1,2-a]pyrimidine-6-carboxylate] | – | – | 6 | 1.5 | – |
| 700 | CCOC(=O)C1=C(C)Nc2ncc(N(C)Cc3ccccc3)n2C1c1cccc([N+](=O)[O-])c1 (centres unmarked) [Compound R, Ethyl 7-methyl-5-(3-nitrophenyl)-3-(N-benzyl-N-methyl)amino-5,8-dihydroimidazo[1,2-a]pyrimidine-6-carboxylate] | – | – | – | – | – |
| – | COC(=O)C1=C(C)Nc2ncc(COC(C)C)n2C1c1cccc([N+](=O)[O-])c1 (centres unmarked) [Compound L, Methyl 3-isopropoxymethyl-7-methyl-5-(3-nitrophenyl)-5,8-dihydroimidazo[1,2-a]pyrimidine-6-carboxylate] | – | – | 5 | 1.0 | – |
| – | CCOC(=O)C1=C(C)Nc2ncc(CN(C)Cc3ccccc3)n2C1c1cccc([N+](=O)[O-])c1.Cl.Cl.O (centres unmarked) [Compound C, Ethyl 3-(N-benzyl-N-methylamino)methyl-7-methyl-5-(3-nitrophenyl)-5,8-dihydroimidazo[1,2-a] pyrimidine-6-carboxylate dihydrochloride monohydrate] | 5 | 1.5 | 10 | 1.5 | survival ([5]; mouse, in vivo, po, 1000 mg/kg): All mice were survived |
| – | CCN(CC)Cc1cnc2n1C(c1cccc([N+](=O)[O-])c1)C(C(=O)OCCOC)=C(C)N2 (centres unmarked) [Compound J, 2-Methoxyethyl 3-diethylaminomethyl-7-methyl-5-(3-nitrophenyl)-5,8-dihydroimidazo[1,2-a]pyrimidine-6-carboxylate] | – | – | 5 | 1.7 | – |
| 200 | CCOC(=O)C1=C(C)Nc2ncc(N3CCCC3)n2C1c1cccc([N+](=O)[O-])c1 (stereo not drawn) [Compound D, Ethyl 7-methyl-5-(3-nitrophenyl)-3-(l-pyrrolidinyl)-5,8-dihydroimidazo[1,2-a]pyrimidine-6-carboxylate] | – | – | 8 | 1.3 | – |
| – | CN1[C@@H]2CC[C@H]1C[C@@H](OC(=O)C(CO)c1ccccc1)C2 (some centres unmarked) [atropine, reference compound] | – | – | – | – | IC50 [1]: 0.74 nM |

| Structure (SMILES) | IC50 [4] [nM] | ED100 [2] [µg] | T 1/2 [2] [min] | ED50 [3] [µg] | T 1/2 [3] [min] | further results |
| --- | --- | --- | --- | --- | --- | --- |
| CCOC(=O)C1=C(C)Nc2ncc(CN(CC)CC)n2C1c1cccc([N+](=O)[O-])c1 (centres unmarked) [Compound B, Ethyl 3-diethylaminomethyl-7-methyl-5-(3-nitrophenyl)-5,8-dihydroimidazo[l,2-a]pyrimidine-6-carboxylate hydrochloride] | 20000 | 10 | 0.8 | 3 | 1.5 | relaxant effect on ACh-contracted preparation [1]: relaxed ACh-contracted preparation in a concentration-dependent manner; IC50 [1, 7]: 4000 nM; survival ([5]; mouse, in vivo, po, 1000 mg/kg): All mice were survived |
| CCN(CC)Cc1cnc2n1C(c1ccccc1C(F)(F)F)C(C(=O)OC)=C(C)N2 (centres unmarked) [Compound E, Methyl 3-diethylaminomethyl-7-methyl-5-(2-trifluoromethylphenyl)-5,8-dihydroimidazo[1,2-a] pyrimidine-6-carboxylate] | 15000 | – | – | 5 | 1.0 | survival [5, 8]: All mice were survived |
| CCN(CC)Cc1cnc2n1C(c1cccc([N+](=O)[O-])c1)C(C(=O)OC)=C(C)N2 (centres unmarked) [Compound A, Methyl 3-diethylaminomethyl-7-methyl-5-(3-nitrophenyl)-5,8-dihydroimidazo[l,2-a]pyrimidine-6-carboxylate hydrochloride] | 50000 | 2 | 0.9 | 2 | 1.0 | relaxant effect on ACh-contracted preparation [1]: relaxed ACh-contracted preparation in a concentration-dependent manner; IC50 [1, 7]: 1600 nM; survival ([5]; mouse, in vivo, po, 1000 mg/kg): All mice were survived; blood pressure lowering value ([6]; after 1 hour): 48 mmHg |
